Laboratory results published in ChEMBL document CHEMBL1146411, “1-Hydroxyditerpenes from Two New Zealand Liverworts, Paraschistochila pinnatifolia and Trichocolea mollissima” (J Nat Prod, 1997).
Converted amounts (≈) assume the structure as drawn. The source made the active and inactive calls. No cut-off for these calls is given here.

Columns and labels:
P388 = assay: Cytotoxicity against mouse P388 cells; format: functional, cell-based
Candida albicans = assay: Antimicrobial activity against Candida albicans at 60 ug/disk; format: functional, organism-based
[1] = Cytotoxicity against […] BSC cells at 60 ug/disk; format: cell-based

Compound | IC50 (P388) | Activity (Candida albicans) | Activity [1]
C[C@@H]1C[C@@]23CC[C@@H]4C(C)(C)CC[C@H](O)[C@@]4(C)[C@@H]2CC(=O)[C@@H]1C3 | 15 µg/mL (≈ 49.3 µM) | – | –
C=C[C@@]1(C)C=C2CC[C@@H]3C(C)(C)CC[C@H](O)[C@@]3(C)[C@@H]2CC1 | > 25 µg/mL | inactive | Not Active
